According to publication PMC9343605, “Structural insights into ligand recognition and selectivity of somatostatin receptors” (Cell Research, 2022):

Key:
[1] = target: SSTR2 (Homo sapiens, UniProt P30874, T194A); experiment: Whole cell binding assay, SSTR2, competition with 125I-Tyr11-SST14, CHO-K1; settings: SSTR2 mutant T194^ECL2A; mean ± SEM;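 note: Cell-bound radioactivity in lysed CHO-K1 cells read by scintillation counting, each mutation introduced singly into the WT receptor, at least three independent experiments run in technical triplicate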
Chain of SSTR2 (Homo sapiens, UniProt P30874, T194A) (P30874 whole entry T194A): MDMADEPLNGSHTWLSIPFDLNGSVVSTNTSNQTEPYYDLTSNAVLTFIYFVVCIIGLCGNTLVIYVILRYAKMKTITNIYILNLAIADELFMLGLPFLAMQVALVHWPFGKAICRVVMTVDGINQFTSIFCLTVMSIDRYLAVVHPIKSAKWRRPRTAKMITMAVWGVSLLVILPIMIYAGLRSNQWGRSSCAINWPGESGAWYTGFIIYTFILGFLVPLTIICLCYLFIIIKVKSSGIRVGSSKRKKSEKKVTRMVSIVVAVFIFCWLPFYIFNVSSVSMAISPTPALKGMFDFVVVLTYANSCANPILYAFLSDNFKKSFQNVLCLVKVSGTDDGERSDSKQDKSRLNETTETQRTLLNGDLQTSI
Protocol: (§1) For SSTR2 and SSTR4, CHO-K1 cells were cultured in F12 medium with 10% FBS and seeded at a density of 30,000 cells/well in Isoplate-96 plates (PerkinElmer). Twenty-four hours after transfection with the WT or mutant SSTR2/SSTR4, CHO-K1 cells were washed twice and incubated with blocking buffer (F12 supplemented with 25 mM HEPES and 0.1% (w/v) BSA, pH 7.4) for 2 h at 37 °C. […] Following incubation, cells were washed three times with ice-cold PBS and lysed by 50 μL lysis buffer (PBS supplemented with 20 mM Tris-HCl, 1% Triton X-100, pH 7.4). The radioactivity was subsequently counted (counts/min, CPM) in a scintillation counter (MicroBeta[2] Plate Counter, PerkinElmer) using a scintillation cocktail (OptiPhaseSuperMix, PerkinElmer). Data were analyzed by nonlinear regression using GraphPad PRISM 8.
(§2) aMutants represent that all mutations were introduced separately into the WT receptors
and expressed in CHO K1 cells.
(§3) bThe IC50 ratio was shown as IC50(mutant)/IC50(WT), indicating the shift between the WT
(§4) and mutant curves, reflecting the effect of the mutations on ligand binding.
(§5) cData are shown as mean ± S.E.M. form at least three independent experiments
(§6) performed in technical triplicate. One-way ANOVA was performed followed by
(§7) Dunnett’s post-test and compared with WT.
(§8) d The span is defined as the window between the maximal agonists response (Emax) and
(§9) e Sample size; the number of independent experiments performed in technical triplicate.

[2] = target: SSTR2 (Homo sapiens, UniProt P30874, Q126A); experiment: as above; settings: SSTR2 mutant Q126^3.36A; mean ± SEM
Chain of SSTR2 (Homo sapiens, UniProt P30874, Q126A) (P30874 whole entry Q126A): as the sequence (P30874 whole entry T194A) above, with Q126A, A194T counted along it
Protocol: as §1, §2
and expressed in CHO K1 cells.
as §3, §4, §5, §6, §7, §8, §9

[3] = target: SSTR2 (Homo sapiens, UniProt P30874, F294A); experiment: as above; settings: SSTR2 mutant F294^7.35A; mean ± SEM
Chain of SSTR2 (Homo sapiens, UniProt P30874, F294A) (P30874 whole entry F294A): as the sequence (P30874 whole entry T194A) above, with A194T, F294A counted along it
Protocol: as §1, §2
and expressed in CHO K1 cells.
as §3, §4, §5, §6, §7, §8, §9

[4] = target: SSTR2 (Homo sapiens, UniProt P30874); experiment: as above; settings: WT SSTR2, mean ± SEM
Chain of SSTR2 (Homo sapiens, UniProt P30874) (P30874 whole entry): as the sequence (P30874 whole entry T194A) above, with A194T counted along it
Protocol: as §1, §2
and expressed in CHO K1 cells.
as §3, §4, §5, §6, §7, §8, §9

[5] = target: SSTR2 (Homo sapiens, UniProt P30874, F272A); experiment: as above; settings: SSTR2 mutant F272^6.51A; mean ± SEM
Chain of SSTR2 (Homo sapiens, UniProt P30874, F272A) (P30874 whole entry F272A): as the sequence (P30874 whole entry T194A) above, with A194T, F272A counted along it
Protocol: as §1, §2
and expressed in CHO K1 cells.
as §3, §4, §5, §6, §7, §8, §9

[6] = test system: SSTR2; experiment: as above; settings: for IC50 ratio: IC50(mutant)/IC50(WT)
Protocol: as §1, §2
and expressed in CHO K1 cells.
as §3, §4, §5, §6, §7, §8, §9

[7] = target: SSTR2 (Homo sapiens, UniProt P30874, T212A); experiment: as above; settings: SSTR2 mutant T212^5.42A; mean ± SEM
Chain of SSTR2 (Homo sapiens, UniProt P30874, T212A) (P30874 whole entry T212A): as the sequence (P30874 whole entry T194A) above, with A194T, T212A counted along it
Protocol: as §1, §2
and expressed in CHO K1 cells.
as §3, §4, §5, §6, §7, §8, §9

[8] = target: SSTR2 (Homo sapiens, UniProt P30874, Q102A); experiment: as above; settings: SSTR2 mutant Q102^2.63A; mean ± SEM
Chain of SSTR2 (Homo sapiens, UniProt P30874, Q102A) (P30874 whole entry Q102A): as the sequence (P30874 whole entry T194A) above, with Q102A, A194T counted along it
Protocol: as §1, §2
and expressed in CHO K1 cells.
as §3, §4, §5, §6, §7, §8, §9

[9] = target: SSTR2 (Homo sapiens, UniProt P30874, Y302A); experiment: as above; settings: SSTR2 mutant Y302^7.43A; mean ± SEM
Chain of SSTR2 (Homo sapiens, UniProt P30874, Y302A) (P30874 whole entry Y302A): as the sequence (P30874 whole entry T194A) above, with A194T, Y302A counted along it
Protocol: as §1, §2
and expressed in CHO K1 cells.
as §3, §4, §5, §6, §7, §8, §9

[10] = target: SSTR2 (Homo sapiens, UniProt P30874, F275A); experiment: as above; settings: SSTR2 mutant F275^6.54A; mean ± SEM
Chain of SSTR2 (Homo sapiens, UniProt P30874, F275A) (P30874 whole entry F275A): as the sequence (P30874 whole entry T194A) above, with A194T, F275A counted along it
Protocol: as §1, §2
and expressed in CHO K1 cells.
as §3, §4, §5, §6, §7, §8, §9

[11] = target: SSTR2 (Homo sapiens, UniProt P30874, Y205A); experiment: as above; settings: SSTR2 mutant Y205^5.35A; mean ± SEM
Chain of SSTR2 (Homo sapiens, UniProt P30874, Y205A) (P30874 whole entry Y205A): as the sequence (P30874 whole entry T194A) above, with A194T, Y205A counted along it
Protocol: as §1, §2
and expressed in CHO K1 cells.
as §3, §4, §5, §6, §7, §8, §9

[12] = target: SSTR2 (Homo sapiens, UniProt P30874, D122A); experiment: as above; settings: SSTR2 mutant D122^3.32A; mean ± SEM
Chain of SSTR2 (Homo sapiens, UniProt P30874, D122A) (P30874 whole entry D122A): as the sequence (P30874 whole entry T194A) above, with D122A, A194T counted along it
Protocol: as §1, §2
and expressed in CHO K1 cells.
as §3, §4, §5, §6, §7, §8, §9

[13] = target: T1, SSTR2 (Homo sapiens, UniProt P30874, S316D/V106E); experiment: cAMP accumulation assay (agonist-induced inhibition of forskolin-stimulated cAMP), SSTR2, HEK293F; type: cell-based; settings: Construct 2* SSTR2; mean ± SEM;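 note: transiently transfected cells exposed to 2 µM forskolin and a ligand concentration series for 40 min at room temperature in IBMX-containing HBSS, then cAMP quantified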
T1 construct: expressed in transfected cells; host or cells: HEK293F
T1 sequence (P30874 1-359 V106E/S316D): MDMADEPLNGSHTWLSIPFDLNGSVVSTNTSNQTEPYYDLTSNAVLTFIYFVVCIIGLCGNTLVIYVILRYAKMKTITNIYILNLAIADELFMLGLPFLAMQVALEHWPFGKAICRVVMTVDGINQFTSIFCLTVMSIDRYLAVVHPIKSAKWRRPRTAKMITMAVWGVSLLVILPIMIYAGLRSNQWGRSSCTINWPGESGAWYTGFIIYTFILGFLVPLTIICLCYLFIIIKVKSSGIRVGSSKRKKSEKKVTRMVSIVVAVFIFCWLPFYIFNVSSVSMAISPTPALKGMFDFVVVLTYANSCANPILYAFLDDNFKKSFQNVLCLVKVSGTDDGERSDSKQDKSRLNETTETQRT
Protocol: (§10) HEK293F cells were transiently transfected with WT or mutant SSTR2/SSTR4 using transfection reagent (PEI MAX 2000, Polysciences) and incubated at 37 °C in 5% CO2. Forty-eight hours after transfection, cells were centrifuged and resuspended in stimulation buffer (Hanks’ balanced salt solution (HBSS) supplemented with 5 mM HEPES, 0.5 mM IBMX and 0.1% (w/v) bovine serum albumin (BSA), pH 7.4) to a density of 200,000 cells/mL and added to 384-well white plates (PerkinElmer, 1000 cells/well). cAMP accumulation was measured by a LANCE Ultra cAMP kit (PerkinElmer) according to the manufacturer’s instructions. In brief, transfected cells were incubated for 40 min in stimulation buffer with 2.5 μL forskolin (SSTR2: 2 μM; SSTR4: 4 μM) and gradient concentration of ligand at RT. The reactions were stopped by addition of lysis buffer containing 5 μL Eu-cAMP tracer and 5 μL ULight-anti-cAMP. Plates were then incubated for 60 min at RT and time-resolved FRET signals were measured at 620 nm and 665 nm by an EnVision multilabel plate reader (PerkinElmer). Data were analyzed in GraphPad PRISM 8 and all values were normalized to the WT for each ligand. All outcomes were repeated at least three times.
(§11) aMutants represent that mutations were introduced separately into the WT receptors and
(§12) transiently expressed in HEK 293F cells.
(§13) bThe EC50 ratio was shown as EC50(mutant)/EC50(WT), indicating the shift between the WT
(§14) and mutant curves, reflecting the effect of the mutations on receptor signaling.
(§15) cData are shown as mean ± S.E.M. from at least three independent experiments
as §6
(§16) Dunnett’s post-test and compared with WT. The P value was defined as: *P<0.05;
as §8, §9
(§17) f Receptor expression level of HEK 293F cells was determined independently by flow
(§18) cytometry with anti-FLAG antibody and shown as per cent compared to the WT.

[14] = target: T2, SSTR2 (Homo sapiens, UniProt P30874, V298A); experiment: as above; type: cell-based; settings: SSTR2 mutant V298^7.39A; mean ± SEM
T2 construct: expressed in transfected cells; host or cells: HEK293F
T2 sequence (P30874 whole entry V298A): as the sequence (P30874 whole entry T194A) above, with A194T, V298A counted along it
Protocol: as §10, §11, §12, §13, §14, §15, §6, §16, §8, §9, §17, §18

[15] = target: T3, SSTR2 (Homo sapiens, UniProt P30874, F208A); experiment: as above; type: cell-based; settings: SSTR2 mutant F208^5.38A; mean ± SEM
T3 construct: expressed in transfected cells; host or cells: HEK293F
T3 sequence (P30874 whole entry F208A): as the sequence (P30874 whole entry T194A) above, with A194T, F208A counted along it
Protocol: as §10, §11, §12, §13, §14, §15, §6, §16, §8, §9, §17, §18

[16] = target: T4, SSTR2 (Homo sapiens, UniProt P30874, P286A); experiment: as above; type: cell-based; settings: SSTR2 mutant P286^ECL3A; mean ± SEM
T4 construct: expressed in transfected cells; host or cells: HEK293F
T4 sequence (P30874 whole entry P286A): as the sequence (P30874 whole entry T194A) above, with A194T, P286A counted along it
Protocol: as §10, §11, §12, §13, §14, §15, §6, §16, §8, §9, §17, §18

[17] = target: T5, SSTR2 (Homo sapiens, UniProt P30874, K291A); experiment: as above; type: cell-based; settings: SSTR2 mutant K291^7.32A; mean ± SEM
T5 construct: expressed in transfected cells; host or cells: HEK293F
T5 sequence (P30874 whole entry K291A): as the sequence (P30874 whole entry T194A) above, with A194T, K291A counted along it
Protocol: as §10, §11, §12, §13, §14, §15, §6, §16, §8, §9, §17, §18

[18] = test system: SSTR2; experiment: as above; type: cell-based, human; settings: EC50(mutant)/EC50(WT)
Protocol: as §10, §11, §12, §13, §14, §15, §6, §16, §8, §9, §17, §18

[19] = target: T6, SSTR2 (Homo sapiens, UniProt P30874, N276A); experiment: as above; type: cell-based; settings: SSTR2 mutant N276^6.55A; mean ± SEM
T6 construct: expressed in transfected cells; host or cells: HEK293F
T6 sequence (P30874 whole entry N276A): as the sequence (P30874 whole entry T194A) above, with A194T, N276A counted along it
Protocol: as §10, §11, §12, §13, §14, §15, §6, §16, §8, §9, §17, §18

[20] = target: T7, SSTR2 (Homo sapiens, UniProt P30874, I284A); experiment: as above; type: cell-based; settings: SSTR2 mutant I284^ECL3A; mean ± SEM
T7 construct: expressed in transfected cells; host or cells: HEK293F
T7 sequence (P30874 whole entry I284A): as the sequence (P30874 whole entry T194A) above, with A194T, I284A counted along it
Protocol: as §10, §11, §12, §13, §14, §15, §6, §16, §8, §9, §17, §18

[21] = test system: SSTR2; settings: cited from earlier work

For `C[C@@H](c1c[nH]c2ccccc12)[C@@H](NC(=O)N1CCC(n2c(=O)[nH]c3ccccc32)CC1)C(=O)N[C@@H](CCCCN)C(=O)OC(C)(C)C` [L-054,522], which Span [1] is on record?
The Span was 22±6 % of WT.

And the “pIC50 ± SEM” value [1]?
Its value is 7.45±0.59.

What about the Span [2] of the same molecule?
The Span was 15±5 % of WT.

What about the Span [3] of the same molecule?
Its Span is 19±2 % of WT.

And the “pKi ± SEM” value ([4]; competition with 125I-SST-14)?
The value was 8.53 ± 0.13.

What about the Span [4] of the same molecule?
Its Span is 100±6 % of WT.

What about the “pIC50 ± SEM” value ([4]; at least three independent experiments) of the same molecule?
Its value is 8.53±0.13.

What about the Span [5] of the same molecule?
The Span was 13±3 % of WT.

What about the IC50 ratio ([6]; Construct 2 SSTR2) of the same molecule?
The IC50 ratio was 3.

And the IC50 ratio ([6]; SSTR2 mutant F275^6.54A)?
Its IC50 ratio is 9.

What about the IC50 ratio ([6]; SSTR2 mutant Q102^2.63A) of the same molecule?
The IC50 ratio was 152.

What about the IC50 ratio ([6]; SSTR2 mutant T194^ECL2A) of the same molecule?
The IC50 ratio was 12.

What about the IC50 ratio ([6]; SSTR2 mutant T212^5.42A) of the same molecule?
Its IC50 ratio is 1.

And the IC50 ratio ([6]; SSTR2 mutant Y205^5.35A)?
The IC50 ratio was 0.4.

What about the IC50 ratio ([6]; WT SSTR2) of the same molecule?
Its IC50 ratio is 1.

And the “effect of construct modifications on binding and signaling” value ([6]; crystallization construct vs WT SSTR2)?
Its value is “little effect on L-054,522 binding and signaling”.

And the Span [7]?
Its Span is 94±5 % of WT.

And the “pIC50 ± SEM” value [7]?
The value was 8.49±0.11.

What about the Span [8] of the same molecule?
Its Span is 20±5 % of WT.

What about the “pIC50 ± SEM” value [8] of the same molecule?
The value was 6.35±0.52.

What about the Span [9] of the same molecule?
Its Span is 15±2 % of WT.

What about the Span [10] of the same molecule?
The Span was 33±3 % of WT.

And the “pIC50 ± SEM” value [10]?
The value was 7.57±0.23.

What about the Span [11] of the same molecule?
Its Span is 70±5 % of WT.

What about the “pIC50 ± SEM” value [11] of the same molecule?
Its value is 8.89±0.15.

What about the Span [12] of the same molecule?
Its Span is 15±7 % of WT.

What about the Span [13] of the same molecule?
The Span was 76±6 % of WT.

And the “pEC50 ± SEM” value [13]?
The value was 9.28±0.17.

What about the Span [14] of the same molecule?
Its Span is 131±9 % of WT.

And the “pEC50 ± SEM” value [14]?
The value was 8.68±0.16.

And the Span [15]?
The Span was 81±5 % of WT.

What about the “pEC50 ± SEM” value [15] of the same molecule?
The value was 9.34±0.13.

And the Span [16]?
Its Span is 96±7 % of WT.

And the “pEC50 ± SEM” value [16]?
Its value is 8.83±0.18.

And the “pEC50 ± SEM” value [17]?
Its value is 9.02±0.12.

What about the EC50 ratio ([18]; Construct 2* SSTR2) of the same molecule?
The EC50 ratio was 2.

What about the EC50 ratio ([18]; SSTR2 mutant D122^3.32A) of the same molecule?
The EC50 ratio was 191.

What about the EC50 ratio ([18]; SSTR2 mutant F208^5.38A) of the same molecule?
The EC50 ratio was 2.

And the EC50 ratio ([18]; SSTR2 mutant F272^6.51A)?
Its EC50 ratio is 64.

And the EC50 ratio ([18]; SSTR2 mutant F275^6.54A)?
The EC50 ratio was 5.

And the EC50 ratio ([18]; SSTR2 mutant F294^7.35A)?
Its EC50 ratio is 20.

What about the EC50 ratio ([18]; SSTR2 mutant I284^ECL3A) of the same molecule?
Its EC50 ratio is 4.

And the EC50 ratio ([18]; SSTR2 mutant K291^7.32A)?
Its EC50 ratio is 4.

And the EC50 ratio ([18]; SSTR2 mutant N276^6.55A)?
Its EC50 ratio is 15.

What about the EC50 ratio ([18]; SSTR2 mutant P286^ECL3A) of the same molecule?
Its EC50 ratio is 7.

What about the EC50 ratio ([18]; SSTR2 mutant Q102^2.63A) of the same molecule?
The EC50 ratio was 2.

What about the EC50 ratio ([18]; SSTR2 mutant Q126^3.36A) of the same molecule?
The EC50 ratio was 3.

And the EC50 ratio ([18]; SSTR2 mutant T194^ECL2A)?
The EC50 ratio was 3.

What about the EC50 ratio ([18]; SSTR2 mutant T212^5.42A) of the same molecule?
Its EC50 ratio is 5.

What about the EC50 ratio ([18]; SSTR2 mutant V298^7.39A) of the same molecule?
The EC50 ratio was 10.

What about the EC50 ratio ([18]; SSTR2 mutant Y205^5.35A) of the same molecule?
Its EC50 ratio is 0.05.

What about the EC50 ratio ([18]; SSTR2 mutant Y302^7.43A) of the same molecule?
Its EC50 ratio is 10.

And the Span [19]?
Its Span is 80±5 % of WT.

What about the “pEC50 ± SEM” value [19] of the same molecule?
Its value is 8.47±0.15.

What about the Span [20] of the same molecule?
The Span was 84±7 % of WT.

And the “pEC50 ± SEM” value [20]?
Its value is 9.07±0.22.

And the “selectivity for SSTR2” value [21]?
Its value is “at least 3000 fold”.
